Experimental data taken from PubChem BioAssay (NCI).
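Results reflect a 48-hour exposure of cells in 96-well plates to compound at five concentrations. At the TGI there is no net growth.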

Experiments:
Test in all cases: NCI-60 cell line screen, 48 h
[1] = tested on: K-562 leukemia
[2] = tested on: DLD-1 colon
[3] = tested on: SN12C renal
[4] = tested on: U251 CNS
[5] = tested on: EKVX NSCLC
[6] = tested on: A498 renal
[7] = tested on: MOLT-4 leukemia
[8] = tested on: SK-MEL-2 melanoma
[9] = tested on: NCI-H460 lung
[10] = tested on: TK-10 renal
[11] = tested on: 786-0 renal
[12] = tested on: OVCAR-3 ovarian
[13] = tested on: CAKI-1 renal
[14] = tested on: HCT-116 colon
[15] = tested on: HT29 colon
[16] = tested on: SNB-75 CNS
[17] = tested on: KM20L2 colon
[18] = tested on: KM12 colon
[19] = tested on: OVCAR-8 ovarian
[20] = tested on: DMS 273 small cell lung
[21] = tested on: SW-620 colon
[22] = tested on: SF-539 CNS
[23] = tested on: OVCAR-4 ovarian
[24] = tested on: HCC-2998 colon
[25] = tested on: NCI-H522 lung
[26] = tested on: SNB-78 CNS
[27] = tested on: SNB-19 CNS
[28] = tested on: HL-60(TB) leukemia
[29] = tested on: SK-MEL-28 melanoma
[30] = tested on: HOP-62 NSCLC
[31] = tested on: HCT-15 colon
[32] = tested on: RPMI-8226 leukemia
[33] = tested on: LXFL 529 NSCLC
[34] = tested on: UO-31 renal
[35] = tested on: DMS 114 small cell lung
[36] = tested on: OVCAR-5 ovarian
[37] = tested on: CCRF-CEM leukemia
[38] = tested on: ACHN renal
[39] = tested on: UACC-62 melanoma
[40] = tested on: SR leukemia
[41] = tested on: A549 NSCLC
[42] = tested on: SF-295 CNS
[43] = tested on: NCI-H226 lung
[44] = tested on: UACC-257 melanoma
[45] = tested on: LOX IMVI melanoma
[46] = tested on: SF-268 CNS
[47] = tested on: RXF 393 renal
[48] = tested on: RXF-631 renal
[49] = tested on: IGROV1 ovarian
[50] = tested on: COLO 205 colon
[51] = tested on: M14 melanoma
[52] = tested on: HOP-92 NSCLC
[53] = tested on: MALME-3M melanoma
[54] = tested on: XF 498 CNS
[55] = tested on: SK-MEL-5 melanoma
[56] = tested on: NCI-H23 lung
[57] = tested on: HOP-18 NSCLC
[58] = tested on: SK-OV-3 ovarian
[59] = tested on: M19-MEL melanoma

Compound: COc1ccc2c(CCNC(C)=O)c(C(C)=O)[nH]c2c1
- TGI [1]: > 100 µM
- TGI [2]: > 100 µM
- TGI [3]: > 100 µM
- TGI [4]: > 100 µM
- TGI [5]: > 100 µM
- TGI [6]: > 100 µM
- TGI [7]: > 100 µM
- TGI [8]: > 100 µM
- TGI [9]: > 100 µM
- TGI [10]: > 100 µM
- TGI [11]: > 100 µM
- TGI [12]: > 100 µM
- TGI [13]: > 100 µM
- TGI [14]: > 100 µM
- TGI [15]: > 100 µM
- TGI [16]: > 100 µM
- TGI [17]: > 100 µM
- TGI [18]: > 100 µM
- TGI [19]: > 100 µM
- TGI [20]: > 100 µM
- TGI [21]: > 100 µM
- TGI [22]: > 100 µM
- TGI [23]: > 100 µM
- TGI [24]: > 100 µM
- TGI [25]: > 100 µM
- TGI [26]: > 100 µM
- TGI [27]: > 100 µM
- TGI [28]: > 100 µM
- TGI [29]: > 100 µM
- TGI [30]: > 100 µM
- TGI [31]: > 100 µM
- TGI [32]: > 100 µM
- TGI [33]: > 100 µM
- TGI [34]: > 100 µM
- TGI [35]: > 100 µM
- TGI [36]: > 100 µM
- TGI [37]: > 100 µM
- TGI [38]: > 100 µM
- TGI [39]: > 100 µM
- TGI [40]: > 100 µM
- TGI [41]: > 100 µM
- TGI [42]: > 100 µM
- TGI [43]: > 100 µM
- TGI [44]: > 100 µM
- TGI [45]: > 100 µM
- TGI [46]: > 100 µM
- TGI [47]: > 100 µM
- TGI [48]: > 100 µM
- TGI [49]: > 100 µM
- TGI [50]: > 100 µM
- TGI [51]: > 100 µM

Compound: COC(=O)/C=C/C1C2C3(CCC(C)C12C)OCCS3 (centres undefined)
- TGI [1]: > 100 µM
- TGI [2]: > 100 µM
- TGI [3]: > 100 µM
- TGI [4]: > 100 µM
- TGI [5]: > 100 µM
- TGI [6]: > 100 µM
- TGI [7]: > 100 µM
- TGI [8]: > 100 µM
- TGI [52]: > 100 µM
- TGI [9]: > 100 µM
- TGI [10]: > 100 µM
- TGI [11]: > 100 µM
- TGI [12]: > 100 µM
- TGI [53]: > 100 µM
- TGI [14]: > 100 µM
- TGI [15]: > 100 µM
- TGI [16]: > 100 µM
- TGI [54]: > 100 µM
- TGI [17]: > 100 µM
- TGI [18]: > 100 µM
- TGI [19]: > 100 µM
- TGI [20]: > 100 µM
- TGI [21]: > 100 µM
- TGI [22]: > 100 µM
- TGI [55]: > 100 µM
- TGI [23]: > 100 µM
- TGI [24]: > 100 µM
- TGI [25]: > 100 µM
- TGI [26]: > 100 µM
- TGI [27]: > 100 µM
- TGI [28]: > 100 µM
- TGI [29]: > 100 µM
- TGI [30]: > 100 µM
- TGI [56]: > 100 µM
- TGI [31]: > 100 µM
- TGI [57]: > 100 µM
- TGI [33]: > 100 µM
- TGI [34]: > 100 µM
- TGI [35]: > 100 µM
- TGI [36]: > 100 µM
- TGI [37]: > 100 µM
- TGI [38]: > 100 µM
- TGI [40]: > 100 µM
- TGI [41]: > 100 µM
- TGI [58]: > 100 µM
- TGI [42]: > 100 µM
- TGI [43]: > 100 µM
- TGI [59]: > 100 µM
- TGI [44]: > 100 µM
- TGI [45]: > 100 µM
- TGI [46]: > 100 µM
- TGI [47]: > 100 µM
- TGI [49]: > 100 µM
- TGI [50]: > 100 µM
- TGI [51]: > 100 µM

Compound: CCCCCCCCOCC(CO)OCCCCCCCC (centres undefined)
- TGI [1]: 32.4 µM
- TGI [2]: 33.1 µM
- TGI [3]: 31.8 µM
- TGI [4]: 32.3 µM
- TGI [6]: 42 µM
- TGI [7]: 37.9 µM
- TGI [52]: 49.2 µM
- TGI [9]: 30 µM
- TGI [10]: 34.4 µM
- TGI [11]: 33.9 µM
- TGI [12]: 34.2 µM
- TGI [53]: 34.9 µM
- TGI [13]: > 100 µM
- TGI [14]: 33.6 µM
- TGI [15]: 36.6 µM
- TGI [19]: 37.7 µM
- TGI [20]: 33.4 µM
- TGI [21]: 37.4 µM
- TGI [55]: 33.8 µM
- TGI [23]: 34.7 µM
- TGI [24]: 33.6 µM
- TGI [27]: 41.8 µM
- TGI [28]: 34.1 µM
- TGI [29]: 34.2 µM
- TGI [30]: 37.2 µM
- TGI [56]: 33 µM
- TGI [31]: 29.7 µM
- TGI [32]: 42.5 µM
- TGI [57]: 24.5 µM
- TGI [33]: 33.1 µM
- TGI [34]: 35.9 µM
- TGI [35]: 42.3 µM
- TGI [36]: 32.7 µM
- TGI [37]: 42.5 µM
- TGI [38]: 31.8 µM
- TGI [39]: 43.3 µM
- TGI [41]: 37.2 µM
- TGI [58]: > 100 µM
- TGI [42]: 30.5 µM
- TGI [43]: 44.9 µM
- TGI [59]: 36.3 µM
- TGI [44]: 37.1 µM
- TGI [45]: 32 µM
- TGI [46]: 29.7 µM
- TGI [48]: 32 µM
- TGI [49]: 40.8 µM
- TGI [50]: 39.7 µM
- TGI [51]: 67.1 µM
